In US20100267561A1, “HERBICIDAL PYRIDAZINONE DERIVATIVES” (priority 2007, published 2010):

Experiments:
Assay type in all cases: in vivo
[1] = tested on: bermudagrass (Cynodon dactylon); assay: Test B pre-/postemergence plant response
In short: (§1)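 Seeds were sown and sprayed preemergence, while plants at 2 to 18 cm (1- to 4-leaf stage) got postemergence sprays. Compounds were formulated in a non-phytotoxic solvent mixture with surfactant. After 13 to 15 days in a greenhouse, injury was rated visually against untreated controls, 0 (no effect) to 100 (complete control).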

[2] = tested on: catchweed bedstraw (Galium aparine); assay: Test B pre-/postemergence plant response; settings: Preemergence
In short: as §1

[3] = tested on: cocklebur (Xanthium strumarium); assay: Test B pre-/postemergence plant response
In short: as §1

[4] = tested on: downy bromegrass (Bromus tectorum); assay: Test B pre-/postemergence plant response
In short: as §1

[5] = tested on: large crabgrass (Digitaria sanguinalis); assay: Test B pre-/postemergence plant response
In short: as §1

soybean (Glycine max) = assay: Test B pre-/postemergence plant response
In short: as §1

[6] = tested on: velvetleaf (Abutilon theophrasti); assay: Test B pre-/postemergence plant response
In short: as §1

[7] = tested on: wheat (Triticum aestivum); assay: Test B pre-/postemergence plant response
In short: as §1

wild oat (Avena fatua) = assay: Test B pre-/postemergence plant response
In short: as §1

[8] = tested on: woolly cupgrass (Eriochloa villosa); assay: Test B pre-/postemergence plant response
In short: as §1

[9] = tested on: barnyardgrass (Echinochloa crus-galli); assay: Test B flooded paddy test plant response
In short: (§2)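 Compounds were added directly to paddy water over 2-leaf-stage plants in pots flooded 3 cm above soil, water depth maintained. Visual injury scored against controls after 13 to 15 days in greenhouse, 0 (none) to 100 (complete control); dash indicates no result.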

[10] = tested on: ducksalad (Heteranthera limosa); assay: Test B flooded paddy test plant response
In short: as §2

rice (Oryza sativa) = assay: Test B flooded paddy test plant response
In short: as §2

[11] = tested on: umbrella sedge (Cyperus difformis); assay: Test B flooded paddy test plant response
In short: as §2

[12] = 8 g ai/ha, postemergence, 0-100 scale
[13] = Postemergence, 16 g ai/ha, scale 0 to 100
[14] = Postemergence, 31 g ai/ha, scale 0 to 100
[15] = Postemergence, 62 g ai/ha, scale 0 to 100, 0 no effect, 100 complete control
[16] = Preemergence, 8 g ai/ha, scale 0 to 100 (0 no effect, 100 complete control)
[17] = Preemergence, 16 g ai/ha, scale 0 to 100 (0 no effect, 100 complete control)
[18] = Preemergence, 31 g ai/ha, 0 to 100 scale, 0 no effect, 100 complete control
[19] = Preemergence, 62 g ai/ha, scale 0 to 100
[20] = Preemergence, 8 g ai/ha, scale 0 to 100
[21] = Preemergence, 31 g ai/ha, scale 0 to 100 (0 no effect, 100 complete control)
[22] = Preemergence, 62 g ai/ha, 0 to 100 scale, 0 no effect, 100 complete control
[23] = Flood (flooded paddy test), 62 g ai/ha, scale 0 to 100, 0 no effect, 100 complete control
[24] = Flood (flooded paddy test), 125 g ai/ha, scale 0 to 100, 0 no effect, 100 complete control
[25] = Flood (flooded paddy test), 250 g ai/ha, scale 0 to 100, 0 no effect, 100 complete control
[26] = Flood, 31 g ai/ha, scale 0 to 100
[27] = Preemergence, 16 g ai/ha, scale 0 to 100
[28] = 16 g ai/ha, postemergence, 0-100 scale

Cn1ncc(O)c(-n2nc(-c3ccc(Cl)cc3)cc2C2CC2)c1=O [Compound 45]
Bermudagrass plant response rating [1, 12]: 60
Plant response rating, Bermudagrass [1, 13]: 95
Plant response rating, Bermudagrass [1, 14]: 98
Plant response rating, Bermudagrass [1, 15]: 98
Bermudagrass plant response rating [1, 16]: 0
Plant response rating, Bermudagrass [1, 17]: 0
Plant response rating, Bermudagrass [1, 18]: 0
Plant response rating, Bermudagrass [1, 19]: 0
Plant response rating, Galium ([2]; 16 g ai/ha, scale 0 to 100 (0 no effect, 100 complete control)): 0
Plant response rating, Galium ([2]; 31 g ai/ha, 0 to 100 scale, 0 no effect, 100 complete control): 0
Plant response rating, Galium ([2]; 62 g ai/ha, scale 0 to 100): 0
Galium plant response rating ([2]; 8 g ai/ha, scale 0 to 100): 0
Cocklebur plant response rating [3, 12]: 0
Plant response rating, Cocklebur [3, 13]: 0
Plant response rating, Cocklebur [3, 14]: 0
Plant response rating, Cocklebur [3, 15]: 0
Plant response rating, Cocklebur [3, 17]: 0
Plant response rating, Cocklebur [3, 18]: 0
Plant response rating, Cocklebur [3, 19]: 0
Cocklebur plant response rating [3, 20]: 0
Bromegrass, Downy plant response rating [4, 12]: 30
Plant response rating, Bromegrass, Downy [4, 13]: 60
Plant response rating, Bromegrass, Downy [4, 14]: 90
Plant response rating, Bromegrass, Downy [4, 15]: 90
Plant response rating, Bromegrass, Downy [4, 17]: 50
Plant response rating, Bromegrass, Downy [4, 18]: 80
Plant response rating, Bromegrass, Downy [4, 19]: 90
Bromegrass, Downy plant response rating [4, 20]: 0
Crabgrass, Large plant response rating [5, 12]: 65
Plant response rating, Crabgrass, Large [5, 13]: 80
Plant response rating, Crabgrass, Large [5, 14]: 100
Plant response rating, Crabgrass, Large [5, 15]: 100
Plant response rating, Crabgrass, Large [5, 17]: 0
Plant response rating, Crabgrass, Large [5, 18]: 0
Plant response rating, Crabgrass, Large [5, 19]: 0
Crabgrass, Large plant response rating [5, 20]: 0
Soybean plant response rating (soybean (Glycine max); [12]): 0
Plant response rating, Soybean (soybean (Glycine max); [13]): 0
Plant response rating, Soybean (soybean (Glycine max); [14]): 0
Plant response rating, Soybean (soybean (Glycine max); [15]): 0
Plant response rating, Soybean (soybean (Glycine max); [17]): 0
Plant response rating, Soybean (soybean (Glycine max); [19]): 65
Velvetleaf plant response rating [6, 12]: 0
Plant response rating, Velvetleaf [6, 13]: 0
Plant response rating, Velvetleaf [6, 14]: 0
Plant response rating, Velvetleaf [6, 15]: 0
Plant response rating, Velvetleaf [6, 17]: 0
Plant response rating, Velvetleaf [6, 21]: 0
Plant response rating, Velvetleaf [6, 22]: 0
Velvetleaf plant response rating [6, 20]: 0
Wheat plant response rating [7, 12]: 60
Plant response rating, Wheat [7, 13]: 85
Plant response rating, Wheat [7, 14]: 85
Plant response rating, Wheat [7, 15]: 98
Plant response rating, Wheat [7, 17]: 30
Plant response rating, Wheat [7, 21]: 70
Plant response rating, Wheat [7, 22]: 95
Wheat plant response rating [7, 20]: 0
Oat, Wild plant response rating (wild oat (Avena fatua); [12]): 90
Plant response rating, Oat, Wild (wild oat (Avena fatua); [13]): 98
Plant response rating, Oat, Wild (wild oat (Avena fatua); [14]): 100
Plant response rating, Oat, Wild (wild oat (Avena fatua); [15]): 100
Plant response rating, Oat, Wild (wild oat (Avena fatua); [17]): 80
Plant response rating, Oat, Wild (wild oat (Avena fatua); [21]): 90
Plant response rating, Oat, Wild (wild oat (Avena fatua); [19]): 95
Oat, Wild plant response rating (wild oat (Avena fatua); [20]): 15
Cupgrass, Woolly plant response rating [8, 12]: 85
Plant response rating, Cupgrass, Woolly [8, 13]: 95
Plant response rating, Cupgrass, Woolly [8, 14]: 100
Plant response rating, Cupgrass, Woolly [8, 15]: 100
Plant response rating, Cupgrass, Woolly [8, 17]: 0
Plant response rating, Cupgrass, Woolly [8, 19]: 0
Cupgrass, Woolly plant response rating [8, 20]: 0
Plant response rating, Barnyardgrass [9, 23]: 20
Plant response rating, Barnyardgrass [9, 24]: 60
Plant response rating, Barnyardgrass [9, 25]: 65
Plant response rating, Barnyardgrass [9, 26]: 20
Plant response rating, Ducksalad [10, 23]: 0
Plant response rating, Ducksalad [10, 24]: 0
Plant response rating, Ducksalad [10, 25]: 75
Plant response rating, Ducksalad [10, 26]: 0
Plant response rating, Rice (rice (Oryza sativa); [23]): 0
Plant response rating, Rice (rice (Oryza sativa); [24]): 45
Plant response rating, Rice (rice (Oryza sativa); [25]): 45
Plant response rating, Rice (rice (Oryza sativa); [26]): 0
Plant response rating, Sedge, Umbrella [11, 23]: 0
Plant response rating, Sedge, Umbrella [11, 24]: 0
Plant response rating, Sedge, Umbrella [11, 25]: 65
Plant response rating, Sedge, Umbrella [11, 26]: 0

CCCc1cc(-c2ccc(Cl)cc2)nn1-c1c(O)cnn(C)c1=O [Compound 76]
Bermudagrass plant response rating [1, 12]: 70
Plant response rating, Bermudagrass [1, 13]: 80
Plant response rating, Bermudagrass [1, 14]: 85
Plant response rating, Bermudagrass [1, 15]: 90
Bermudagrass plant response rating [1, 16]: 0
Bermudagrass plant response rating [1, 17]: 20
Plant response rating, Bermudagrass [1, 21]: 100
Plant response rating, Bermudagrass [1, 22]: 100
Plant response rating, Galium ([2]; 31 g ai/ha, scale 0 to 100 (0 no effect, 100 complete control)): 0
Plant response rating, Galium ([2]; 62 g ai/ha, 0 to 100 scale, 0 no effect, 100 complete control): 0
Galium plant response rating ([2]; 8 g ai/ha, scale 0 to 100): 0
Galium plant response rating ([2]; 16 g ai/ha, scale 0 to 100): 0
Cocklebur plant response rating [3, 12]: 0
Plant response rating, Cocklebur [3, 13]: 0
Plant response rating, Cocklebur [3, 14]: 0
Plant response rating, Cocklebur [3, 15]: 0
Plant response rating, Cocklebur [3, 21]: 0
Plant response rating, Cocklebur [3, 22]: 0
Cocklebur plant response rating [3, 20]: 0
Cocklebur plant response rating [3, 27]: 0
Bromegrass, Downy plant response rating [4, 12]: 0
Plant response rating, Bromegrass, Downy [4, 13]: 0
Plant response rating, Bromegrass, Downy [4, 14]: 0
Plant response rating, Bromegrass, Downy [4, 15]: 20
Plant response rating, Bromegrass, Downy [4, 21]: 0
Plant response rating, Bromegrass, Downy [4, 22]: 0
Bromegrass, Downy plant response rating [4, 20]: 0
Bromegrass, Downy plant response rating [4, 27]: 0
Crabgrass, Large plant response rating [5, 12]: 20
Plant response rating, Crabgrass, Large [5, 13]: 85
Plant response rating, Crabgrass, Large [5, 14]: 95
Plant response rating, Crabgrass, Large [5, 15]: 100
Plant response rating, Crabgrass, Large [5, 21]: 55
Plant response rating, Crabgrass, Large [5, 22]: 98
Crabgrass, Large plant response rating [5, 20]: 0
Crabgrass, Large plant response rating [5, 27]: 20
Soybean plant response rating (soybean (Glycine max); [12]): 0
Soybean plant response rating (soybean (Glycine max); [28]): 0
Plant response rating, Soybean (soybean (Glycine max); [14]): 0
Plant response rating, Soybean (soybean (Glycine max); [15]): 0
Plant response rating, Soybean (soybean (Glycine max); [21]): 0
Plant response rating, Soybean (soybean (Glycine max); [22]): 0
Soybean plant response rating (soybean (Glycine max); [20]): 0
Soybean plant response rating (soybean (Glycine max); [27]): 0
Velvetleaf plant response rating [6, 12]: 0
Velvetleaf plant response rating [6, 28]: 0
Plant response rating, Velvetleaf [6, 14]: 0
Plant response rating, Velvetleaf [6, 15]: 0
Plant response rating, Velvetleaf [6, 21]: 0
Plant response rating, Velvetleaf [6, 22]: 0
Velvetleaf plant response rating [6, 20]: 0
Velvetleaf plant response rating [6, 27]: 0
Wheat plant response rating [7, 12]: 10
Wheat plant response rating [7, 28]: 30
Plant response rating, Wheat [7, 14]: 30
Plant response rating, Wheat [7, 15]: 35
Plant response rating, Wheat [7, 21]: 0
Plant response rating, Wheat [7, 22]: 0
Wheat plant response rating [7, 27]: 0
Oat, Wild plant response rating (wild oat (Avena fatua); [12]): 80
Oat, Wild plant response rating (wild oat (Avena fatua); [28]): 95
Plant response rating, Oat, Wild (wild oat (Avena fatua); [14]): 100
Plant response rating, Oat, Wild (wild oat (Avena fatua); [15]): 100
Plant response rating, Oat, Wild (wild oat (Avena fatua); [21]): 5
Plant response rating, Oat, Wild (wild oat (Avena fatua); [22]): 80
Oat, Wild plant response rating (wild oat (Avena fatua); [20]): 0
Oat, Wild plant response rating (wild oat (Avena fatua); [27]): 0
Cupgrass, Woolly plant response rating [8, 12]: 60
Plant response rating, Cupgrass, Woolly [8, 13]: 65
Plant response rating, Cupgrass, Woolly [8, 14]: 85
Plant response rating, Cupgrass, Woolly [8, 15]: 90
Plant response rating, Cupgrass, Woolly [8, 21]: 90
Plant response rating, Cupgrass, Woolly [8, 22]: 98
Cupgrass, Woolly plant response rating [8, 20]: 55
Cupgrass, Woolly plant response rating [8, 27]: 75
Plant response rating, Barnyardgrass [9, 23]: 0
Plant response rating, Barnyardgrass [9, 25]: 0
Plant response rating, Ducksalad [10, 23]: 0
Plant response rating, Ducksalad [10, 25]: 0
Plant response rating, Rice (rice (Oryza sativa); [23]): 0
Plant response rating, Rice (rice (Oryza sativa); [25]): 0
Plant response rating, Sedge, Umbrella [11, 23]: 0
Plant response rating, Sedge, Umbrella [11, 25]: 0
